“Also recorded” adds a separate entry of the source.
Legend:
[1] = tested on: calvaria; assay: Bone resorption assay (calcium released into media by mouse calvaria); type: cell-based, mice (In:GP(s)), three to six day old; conditions: for calcium in the media: three days
Text: Glutamine was obtained from Biofluids (Catalog No. 300). […] Heparin was obtained from Organon (1000 units/cc). […] Above factors were stored at -20 degrees centigrade.
Three to six day old mice (In:GP(s)) were obtained from the small animal section of the Veterinarian Resources Branch of the National Institutes of Health. Calvaria were harvested and washed in 500 cc of Hank's Balanced Salt solution without calcium or magnesium (Catalog No. 320, Biofluids) with a stirring bar for one to one and a half hours. The calvaria were placed in 2cc of study media in 16 × 125 mm STYRENE tissue culture tubes (Catalog No. R605, Elkay Products, Inc.). Study media was made by mixing equal volumes of Media A and Media B and then adding the appropriate growth factors. […] The calcium in the media was determined after three days with an ABBOTT Bichromatic Analyzer 100.

[2] = tested on: patient having symptomatic hypercalcemia; conditions: cited from earlier work
[3] = cited from earlier work
[4] = tested on: PDGF cell surface receptors; conditions: cited from earlier work
[5] = Plasma half life / plasma level; type: in vivo, human; conditions: after attainment of an effective plasma level
Text: The term "plasma" as used herein refers to whole blood plasma having cell bodies spun out by centrifugation, or similar method. […] Chromatog., Vol. 8, pp. 1685-1696 (1985), hereby incorporated by reference.

[6] = tested on: TGF-B cell surface receptors; conditions: cited from earlier work
[7] = tested on: EGF cell surface receptors; conditions: cited from earlier work
[8] = when used at the levels herein taught; cited from earlier work

Parathyroid Hormone - related protein (PTH-rp): Human PTH-related protein (PTH-RP) (1-34) (Catalog No. 6151; Peninsular Laboratories Incorporated)
calcium in the media ([1]; Example 3, FIG. 1C, calvaria plus PTH-rp 200 ng/ml, without suramin, n=10, media with calvaria 9.1 +/- 0.46, P=0.0015): 11.3 ± 0.34 mg/dL

calcitonin
response of hypercalcemia to calcitonin ([2]; same patient, before suramin): becoming refractory to treatment with calcitonin

Cc1ccc(C(=O)Nc2ccc(S(=O)(=O)O)c3cc(S(=O)(=O)O)cc(S(=O)(=O)O)c23)cc1NC(=O)c1cccc(NC(=O)Nc2cccc(C(=O)Nc3cc(C(=O)Nc4ccc(S(=O)(=O)O)c5cc(S(=O)(=O)O)cc(S(=O)(=O)O)c45)ccc3C)c2)c1 [suramin, 8,8'-[carbonylbis[imino-3,1-phenylenecarbonylimino(4-methyl-3,1-phenylene)carbonylimino]]bis-1,3,5-naphthalenetrisulfonic acid]
plasma suramin level ([3]; 350 mg/m^2 /d continuous infusion for about two weeks, 20160 min): 250 to 300 µg/mL | half life in plasma (in words) ([3]; human plasma): long plasma half life | calcium in the media ([1]; Example 1, FIG. 1A, calvaria plus suramin 200 mcg/ml, mean +/- SEM, n=6, media with calvaria 9.88 +/- 1.49, P=0.0002): 7.05 ± 0.32 mg/dL | calcium in the media ([1]; Example 2, FIG. 1B, calvaria plus PTH (200 ng/ml) plus suramin 200 mcg/ml, n=6, vs. calvaria plus PTH P=0.0045): 8.33 ± 0.57 mg/dL | calcium in the media ([1]; Example 3, FIG. 1C, calvaria plus PTH-rp (200 ng/ml) plus suramin 200 mcg/ml, n=10, vs. calvaria plus PTH-rp P=0.0001): 7.26 ± 0.18 mg/dL | inhibition of bone resorption (conclusion in words) ([1]; based on Examples 1-3): possesses properties which allow it to inhibit bone resorption | duration of normocalcemia after suramin treatment ([2]; one patient, cancer metastatic to bone): remained normocalcemic for three months; also recorded: normalized for three months | normalization of hypercalcemia ([2]; suramin 350 mg/m^2 /d continuous infusion about two weeks, calcium levels before 14 to 15 mg/dL): became normocalcemic within about two weeks | blocking of PDGF to cell surface receptors [4]: has been shown to block | time for which effective plasma levels are maintained without readministering [5]: 6-8 weeks | blocking of TGF-B to cell surface receptors [6]: has been shown to block | blocking of EGF to cell surface receptors [7]: has been shown to block | toxicity (in words) [8]: relatively low toxicity

Source: patent publication US5173509A (The United States of America as represented by the …, priority 1990, dated 1992)
